Experimental data taken from PubChem BioAssay AID2060504 (Molecular Pharmacology Branch, DTP, NCI, 2025).

Tested on: 636577-100-R-J1-PDC complex spheroid viability
Assay: Anticancer human tumor 636577-100-R-J1-PDC patient-derived endometrial adenocarcinoma cell line growth inhibition [GQUAD]
Settings: for IC50: curve of first compound; for viability, T/C: stronger effect = lower value; active = viability on the fitted dose curve at most 10% of control; inactive = the rest
How it was run: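 Multi-cell-type spheroids of tumor cells with HUVEC and mesenchymal stem cells, treated with drug combinations. Concentrations descend in half-log steps from near clinical Cmax, or from 10 microM where Cmax is unknown; viability read-out.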

[1] = second compound 0.0316 µM, first compound 0.0316 µM
[2] = second compound 0.0316 µM, first compound 0.1 µM
[3] = second compound 0.0316 µM, first compound 0.316 µM
[4] = second compound 0.0316 µM, first compound 1 µM
[5] = second compound 0.0316 µM, first compound 3.16 µM
[6] = second compound 0.0316 µM, first compound 10 µM
[7] = second compound 0.1 µM, first compound 0.0316 µM
[8] = second compound 0.1 µM, first compound 0.1 µM
[9] = second compound 0.1 µM, first compound 0.316 µM
[10] = second compound 0.1 µM, first compound 1 µM
[11] = second compound 0.1 µM, first compound 3.16 µM
[12] = second compound 0.1 µM, first compound 10 µM
[13] = second compound 0.316 µM, first compound 0.0316 µM
[14] = second compound 0.316 µM, first compound 0.1 µM
[15] = second compound 0.316 µM, first compound 0.316 µM
[16] = second compound 0.316 µM, first compound 1 µM
[17] = second compound 0.316 µM, first compound 3.16 µM
[18] = second compound 0.316 µM, first compound 10 µM
[19] = second compound 1 µM, first compound 0.0316 µM
[20] = second compound 1 µM, first compound 0.1 µM
[21] = second compound 1 µM, first compound 0.316 µM
[22] = second compound 1 µM, first compound 1 µM
[23] = second compound 1 µM, first compound 3.16 µM
[24] = second compound 1 µM, first compound 10 µM
[25] = second compound 3.16 µM, first compound 0.0316 µM
[26] = second compound 3.16 µM, first compound 0.1 µM
[27] = second compound 3.16 µM, first compound 0.316 µM
[28] = second compound 3.16 µM, first compound 1 µM
[29] = second compound 3.16 µM, first compound 3.16 µM
[30] = second compound 3.16 µM, first compound 10 µM
[31] = second compound 10 µM, first compound 0.0316 µM
[32] = second compound 10 µM, first compound 0.1 µM
[33] = second compound 10 µM, first compound 0.316 µM
[34] = second compound 10 µM, first compound 1 µM
[35] = second compound 10 µM, first compound 3.16 µM
[36] = second compound 10 µM, first compound 10 µM
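Also: viability read after seven days of drug exposure.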
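For viability, T/C in this document: luminescence signal used as a proxy for viable cells; 100% = DMSO vehicle control wells.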

COc1ncnc(C2CC2)c1-c1ncc2cnn(Cc3ccc(-c4nc(C(F)(F)F)cn4C(C)C)cc3)c2n1 + CN(C)c1ccc(Nc2c3ccc(NC(=O)CCN4CCCC4)cc3nc3cc(NC(=O)CCN4CCCC4)ccc23)cc1
active: viability, T/C [31] 4.33% | viability, T/C [32] 4.66% | viability, T/C [33] 3.91% | viability, T/C [34] 3.97% | viability, T/C [35] 2.12% | viability, T/C [36] 0.46%
inactive: viability, T/C [1] 79.6% | viability, T/C [2] 62.9% | viability, T/C [3] 69.6% | viability, T/C [4] 64% | viability, T/C [5] 56.9% | viability, T/C [6] 57.4% | viability, T/C [7] 69.4% | viability, T/C [8] 47.5% | viability, T/C [9] 66% | viability, T/C [10] 39.1% | viability, T/C [11] 63% | viability, T/C [12] 68.8% | viability, T/C [13] 71.5% | viability, T/C [14] 61.9% | viability, T/C [15] 58.1% | viability, T/C [16] 54.4% | viability, T/C [17] 64.2% | viability, T/C [18] 48.9% | viability, T/C [19] 57.2% | viability, T/C [20] 52.5% | viability, T/C [21] 49.2% | viability, T/C [22] 25.7% | viability, T/C [23] 54.3% | viability, T/C [24] 48.9% | viability, T/C [25] 32.4% | viability, T/C [26] 31.1% | viability, T/C [27] 36.2% | viability, T/C [28] 30.8% | viability, T/C [29] 26% | viability, T/C [30] 17.8%
< 31.6 nM: IC50 (second compound 3.16 µM) | IC50 (second compound 10 µM)
> 10000 nM: IC50 (second compound 0.0316 µM) | IC50 (second compound 0.1 µM) | IC50 (second compound 0.316 µM)
91.6 nM: IC50 (second compound 1 µM)

Cc1[nH]c2ccccc2c1CCNCc1ccc(/C=C/C(=O)NO)cc1 + CN(C)c1ccc(Nc2c3ccc(NC(=O)CCN4CCCC4)cc3nc3cc(NC(=O)CCN4CCCC4)ccc23)cc1
3.84 nM: IC50 (second compound 0.0316 µM)
4.62 nM: IC50 (second compound 0.1 µM)
4.84 nM: IC50 (second compound 0.316 µM)
active: viability, T/C [3] 12.3% | viability, T/C (second compound 0.1 µM, first compound 0.0999 µM) 8.43% | viability, T/C [9] 8.87% | viability, T/C [21] 10.1% | viability, T/C (second compound 10 µM, first compound 0.000999 µM) 6.06% | viability, T/C (second compound 10 µM, first compound 0.00316 µM) 7.54% | viability, T/C (second compound 10 µM, first compound 0.00999 µM) 7.16% | viability, T/C [31] 6.21% | viability, T/C (second compound 10 µM, first compound 0.0999 µM) 6.38% | viability, T/C [33] 3.97%
3.15 nM: IC50 (second compound 1 µM)
inactive: viability, T/C (second compound 0.0316 µM, first compound 0.000999 µM) 84% | viability, T/C (second compound 0.0316 µM, first compound 0.00316 µM) 49.5% | viability, T/C (second compound 0.0316 µM, first compound 0.00999 µM) 40.6% | viability, T/C [1] 15.7% | viability, T/C (second compound 0.0316 µM, first compound 0.0999 µM) 8.74% | viability, T/C (second compound 0.1 µM, first compound 0.000999 µM) 80.7% | viability, T/C (second compound 0.1 µM, first compound 0.00316 µM) 56.5% | viability, T/C (second compound 0.1 µM, first compound 0.00999 µM) 36.1% | viability, T/C [7] 14.2% | viability, T/C (second compound 0.316 µM, first compound 0.000999 µM) 62.3% | viability, T/C (second compound 0.316 µM, first compound 0.00316 µM) 62.5% | viability, T/C (second compound 0.316 µM, first compound 0.00999 µM) 30.4% | viability, T/C [13] 14% | viability, T/C (second compound 0.316 µM, first compound 0.0999 µM) 8.97% | viability, T/C [15] 9.2% | viability, T/C (second compound 1 µM, first compound 0.000999 µM) 65.4% | viability, T/C (second compound 1 µM, first compound 0.00316 µM) 48.6% | viability, T/C (second compound 1 µM, first compound 0.00999 µM) 31.5% | viability, T/C [19] 13.9% | viability, T/C (second compound 1 µM, first compound 0.0999 µM) 9.95% | viability, T/C (second compound 3.16 µM, first compound 0.000999 µM) 37.1% | viability, T/C (second compound 3.16 µM, first compound 0.00316 µM) 29.2% | viability, T/C (second compound 3.16 µM, first compound 0.00999 µM) 20.2% | viability, T/C [25] 15.6% | viability, T/C (second compound 3.16 µM, first compound 0.0999 µM) 10.3% | viability, T/C [27] 10.9%
< 0.999 nM: IC50 (second compound 3.16 µM) | IC50 (second compound 10 µM)

O=C(NO)c1cnc(N2CCN(S(=O)(=O)c3ccc4ccccc4c3)CC2)nc1 + CN(C)c1ccc(Nc2c3ccc(NC(=O)CCN4CCCC4)cc3nc3cc(NC(=O)CCN4CCCC4)ccc23)cc1
inactive: viability, T/C [1] 30.3% | viability, T/C [2] 14.9% | viability, T/C [7] 34.5% | viability, T/C [8] 15.9% | viability, T/C [13] 30.4% | viability, T/C [14] 18.8% | viability, T/C [19] 26.3% | viability, T/C [20] 15.7% | viability, T/C [25] 25.1% | viability, T/C [26] 15.6%
active: viability, T/C [3] 6.37% | viability, T/C [4] 6.45% | viability, T/C [5] 0.17% | viability, T/C [6] 0.08% | viability, T/C [9] 6.15% | viability, T/C [10] 6.73% | viability, T/C [11] 0.15% | viability, T/C [12] 0.08% | viability, T/C [15] 6.26% | viability, T/C [16] 5.85% | viability, T/C [17] 0.15% | viability, T/C [18] 0.1% | viability, T/C [21] 7.08% | viability, T/C [22] 7.15% | viability, T/C [23] 0.24% | viability, T/C [24] 0.08% | viability, T/C [27] 8.28% | viability, T/C [28] 6.85% | viability, T/C [29] 0.21% | viability, T/C [30] 0.08% | viability, T/C [31] 7.11% | viability, T/C [32] 4.48% | viability, T/C [33] 5.08% | viability, T/C [34] 6.28% | viability, T/C [35] 0.12% | viability, T/C [36] 0.08%
< 31.6 nM: IC50 (second compound 0.0316 µM) | IC50 (second compound 0.1 µM) | IC50 (second compound 0.316 µM) | IC50 (second compound 1 µM) | IC50 (second compound 3.16 µM) | IC50 (second compound 10 µM)
